What was measured:
K562 (leukemia) = experiment: MTT assay, K562 cells; type: cell-based, human; conditions: K562, 72 h
Description: (§1) In order to evaluate the anticancer activity of aristoloxazine isolated in Example 1, the cytotoxic activity against 14 human cancer cell lines including SKMEL5 (melanoma), A431 (non-melanoma skin), PC3 (prostate), A549 (lung), HT1080 (fibrosarcoma), OVCAR3 (ovary), HCT116 (colon), AGS (stomach), HepG2 (liver), MCF7 (breast cancer), K562 (leukemia), U-87 (glioma), ACHN (renal adenocarcinoma) and Caki (clear cell kidney cancer) was evaluated.
(§2) Cells were seeded (1 to 2.5×10^3 cells per well) in 96-well plates and then allowed to settle overnight. Next, the cells were treated with different doses of the compound for 24 hours, 48 hours or 72 hours in a 37° C. CO2 incubator, and 20 μL of MTT ((4,5-dimethylthiazol-2-yl)-2,5-diphenyltetrazolium bromide reagent (Sigma-Aldrich, Inc., St. Louis, MO, USA) was added to each well. After 1 to 2 hours, the medium was discarded, and 100 μL of DMSO (dimethyl sulfoxide, VWR Life Science, Ohio, USA) was added, and then, absorbance was measured at 570 nm by using a Multiskan Skyhigh microplate spectrophotometer (Thermo Scientific, Singapore). 5-FU was used as a positive control. The extract in Table 2 was a 70% ethanol Asarum heterotropoides root extract obtained in the process of preparing the Asarum heterotropoides root fraction of Example 1-2.

[1] = tested on: Caki (clear cell kidney cancer); experiment: MTT assay, Caki cells; type: cell-based, human; conditions: 72 h
Description: as §1, §2

HT1080 (fibrosarcoma) = experiment: MTT assay, HT1080 cells; type: cell-based, human
Description: as §1, §2

HCT116 (colon cancer) = experiment: MTT assay, HCT116 cells; type: cell-based, human
Description: as §1, §2

[2] = tested on: ACHN (renal adenocarcinoma); experiment: MTT assay, ACHN cells; type: cell-based, human; conditions: 72 h
Description: as §1, §2

AGS (stomach cancer) = experiment: MTT assay, AGS cells; type: cell-based, human; conditions: 72 h
Description: as §1, §2

U-87 (glioma) = experiment: MTT assay, U-87 cells; type: cell-based, human; conditions: U-87, 72 h
Description: as §1, §2

A549 (lung cancer) = experiment: MTT assay, A549 cells; type: cell-based, human; conditions: A549, 72 h
Description: as §1, §2

[3] = tested on: A431 (non-melanoma skin cancer); experiment: MTT assay, A431 cells; type: cell-based, human
Description: as §1, §2

SKMEL5 (melanoma) = experiment: MTT assay, SKMEL5 cells; type: cell-based, human
Description: as §1, §2

PC3 (prostate cancer) = experiment: MTT assay, PC3 cells; type: cell-based; conditions: Homo sapiens, PC-3, PC3, 72 h
Description: as §1, §2

[4] = tested on: 14 human cancer cell lines; experiment: MTT assay, panel of all cancer cell lines tested; type: cell-based; conditions: span over all cancer cell lines tested, read-out: IC50 values, cytotoxicity against all cells that were tested
Description: as §1, §2

MCF7 (breast cancer) = experiment: MTT assay, MCF7 cells; type: cell-based; conditions: Homo sapiens, MCF7, 72 h
Description: as §1, §2

HepG2 (liver cancer) = experiment: MTT assay, HepG2 cells; type: cell-based; conditions: Homo sapiens, HepG2, 72 h
Description: as §1, §2

OVCAR3 (ovarian cancer) = experiment: MTT assay, OVCAR3 cells; type: cell-based; conditions: Homo sapiens, OVCAR-3, OVCAR3, 72 h
Description: as §1, §2

SMILES: O=c1[nH]cc(F)c(=O)[nH]1 [Compound 5-FU, 5-FU, reference compound]
- IC50 (K562 (leukemia)): 6700 ± 200 nM
- IC50 [1]: 9900 ± 200 nM
- IC50 (HT1080 (fibrosarcoma); HT1080, 72 h): 4900 ± 100 nM
- IC50 (HCT116 (colon cancer); HCT116, 72 h): 3500 ± 100 nM
- IC50 [2]: 9100 ± 2900 nM
- IC50 (AGS (stomach cancer)): 3200 ± 100 nM
- IC50 (U-87 (glioma)): 9000 ± 200 nM
- IC50 (A549 (lung cancer)): 2400 ± 100 nM
- IC50 ([3]; A431, 72 h): 1000 ± 30 nM
- IC50 (SKMEL5 (melanoma); SKMEL5, 72 h): 8400 ± 700 nM

SMILES: COc1cccc2c1[C@H](SCC(N)=O)c1noc(=O)c3cc4c(c-2c13)OCO4 [Aristoloxazine C]
- IC50 (K562 (leukemia); Homo sapiens): 78.6 ± 2 nM
- IC50 (PC3 (prostate cancer)): 84.3 ± 2 nM
- IC50 [4]: 17.8 to 374 nM
- IC50 (MCF7 (breast cancer)): 46.4 ± 2 nM
- IC50 ([1]; Homo sapiens): 65.4 ± 2.9 nM
- IC50 (HT1080 (fibrosarcoma); Homo sapiens, HT-1080, HT1080, 72 h): 143 ± 2.3 nM
- IC50 (HCT116 (colon cancer); Homo sapiens, HCT-116, HCT116, 72 h): 29.3 ± 0.2 nM
- IC50 ([2]; Homo sapiens): 17.8 ± 0.1 nM
- IC50 (AGS (stomach cancer); Homo sapiens): 22.1 ± 0.8 nM
- IC50 (U-87 (glioma); Homo sapiens, U-87 MG): 57.8 ± 5.5 nM
- IC50 (HepG2 (liver cancer)): 149.2 ± 0.7 nM
- IC50 (A549 (lung cancer); Homo sapiens): 25.7 ± 0.7 nM
- IC50 ([3]; Homo sapiens, A-431, A431, 72 h): 85.7 ± 2.5 nM
- IC50 (SKMEL5 (melanoma); Homo sapiens, SK-MEL-5, SKMEL5, 72 h): 72.1 ± 0.4 nM
- IC50 (OVCAR3 (ovarian cancer)): 374 ± 12 nM

From patent US20250059203A1, “USE OF ARISTOLOXAZINE C HAVING ANTICANCER ACTIVITY” (KOREA INSTITUTE OF ORIENTAL MEDICINE, priority 2021, published 2025)
